In US20090069370A1, “AZACYCLYLISOQUINOLINONE AND ISOINDOLINONE DERIVATIVES AS HISTAMINE-3 ANTAGONISTS” (Wyeth, priority 2007, published 2009):
Where a name gives a salt, the structure may show the parent alone.

Row | SMILES | melting point
1 | N#Cc1ccc(-c2ccc3c(c2)CN(C2CCN(CC4CCCC4)CC2)C3=O)cc1 (as salt: hydrochloride) [Example 27, 4-{2-[1-(Cyclopentylmethyl)piperidin-4-yl]-1-oxo-2,3-dihydro-1H-isoindol-5-yl}benzonitrile] | > 300 °C
2 | N#Cc1ccc(-c2ccc3c(c2)CN(C2CCN(C4CCC4)CC2)C3=O)cc1 (as salt: hydrochloride) [Example 28, 4-[2-(1-Cyclobutylpiperidin-4-yl)-1-oxo-2,3-dihydro-1H-isoindol-5-yl]benzonitrile] | 320 °C (dec.)
3 | N#Cc1ccc(-c2ccc3c(c2)CN(C2CCN(C4CCCC4)CC2)C3=O)cc1 (as salt: hydrochloride) [Example 29, 4-[2-(1-Cyclopentylpiperidin-4-yl)-1-oxo-2,3-dihydro-1H-isoindol-5-yl]benzonitrile] | 270 °C (dec.)
4 | N#Cc1ccc(-c2ccc3c(c2)CN(C2CCN(C4CCCCC4)CC2)C3=O)cc1 (as salt: hydrochloride) [Example 30, 4-[2-(1-Cyclohexylpiperidin-4-yl)-1-oxo-2,3-dihydro-1H-isoindol-5-yl]benzonitrile] | > 300 °C
5 | O=C(c1ccc(-c2ccc3c(c2)CCN([C@@H]2CCN(C4CCC4)C2)C3=O)cc1F)N1CCCC1 (as salt: hydrochloride) [Example 48, 2-[(3R)-1-cyclobutylpyrrolidin-3-yl]-6-[3-fluoro-4-(pyrrolidin-1-ylcarbonyl)phenyl]-3,4-dihydroisoquinolin-1(2H)-one] | 235 to 236 °C
6 | O=C(c1ccc(-c2ccc3c(c2)CCN([C@@H]2CCN(C4CCC4)C2)C3=O)cc1Cl)N1CCCC1 (as salt: hydrochloride) [Example 49, 6-[3-chloro-4-(pyrrolidin-1-ylcarbonyl)phenyl]-2-[(3R)-1-cyclobutylpyrrolidin-3-yl]-3,4-dihydroisoquinolin-1(2H)-one] | 198 to 200 °C
7 | O=C1c2ccc(-c3ccccc3)cc2CCN1[C@@H]1CCN(C2CCC2)C1 (as salt: hydrochloride) [Example 50, 2-[(3R)-1-cyclobutylpyrrolidin-3-yl]-6-phenyl-3,4-dihydroisoquinolin-1(2H)-one] | > 255 °C
8 | O=C1c2ccc(-c3ccc(F)cc3)cc2CCN1[C@@H]1CCN(C2CCC2)C1 (as salt: hydrochloride) [Example 51, 2-[(3R)-1-cyclobutylpyrrolidin-3-yl]-6-(4-fluorophenyl)-3,4-dihydroisoquinolin-1(2H)-one] | 231 to 233 °C
9 | O=C(c1cccc(-c2ccc3c(c2)CCN([C@@H]2CCN(C4CCC4)C2)C3=O)c1)N1CCCC1 (as salt: hydrochloride) [Example 52, 2-[(3R)-1-cyclobutylpyrrolidin-3-yl]-6-[3-(pyrrolidin-1-ylcarbonyl)phenyl]-3,4-dihydroisoquinolin-1(2H)-one] | 203 to 205 °C
10 | CN1CC[C@@H](N2CCc3cc(-c4ccc(C(=O)N5CCCC5)cc4)ccc3C2=O)C1 (as salt: hydrochloride) [Example 55, 2-[(3R)-1-methylpyrrolidin-3-yl]-6-[4-(pyrrolidin-1-ylcarbonyl)phenyl]-3,4-dihydroisoquinolin-1(2H)-one] | > 230 °C
11 | CC(C)N1CC[C@@H](N2CCc3cc(-c4ccc(C(=O)N5CCCC5)cc4)ccc3C2=O)C1 (as salt: hydrochloride) [Example 56, 2-[(3R)-1-(1-methylethyl)pyrrolidin-3-yl]-6-[4-(pyrrolidin-1-ylcarbonyl)phenyl]-3,4-dihydroisoquinolin-1(2H)-one] | 220 to 222 °C
12 | O=C(c1ccc(-c2ccc3c(c2)CCN([C@@H]2CCN(CC4CC4)C2)C3=O)cc1)N1CCCC1 (as salt: hydrochloride) [Example 58, 2-[(3R)-1-(cyclopropylmethyl)pyrrolidin-3-yl]-6-[4-(pyrrolidin-1-ylcarbonyl)phenyl]-3,4-dihydroisoquinolin-1(2H)-one] | 287 to 288 °C
13 | O=C(c1ccc(-c2ccc3c(c2)CCN([C@@H]2CCN(CC4CCCC4)C2)C3=O)cc1)N1CCCC1 (as salt: hydrochloride) [Example 59, 2-[(3R)-1-(cyclopentylmethyl)pyrrolidin-3-yl]-6-[4-(pyrrolidin-1-ylcarbonyl)phenyl]-3,4-dihydroisoquinolin-1(2H)-one] | 288 to 290 °C
14 | O=C(c1ccc(-c2ccc3c(c2)CCN([C@@H]2CCN(Cc4ccoc4)C2)C3=O)cc1)N1CCCC1 (as salt: hydrochloride) [Example 60, 2-[(3R)-1-(furan-3-ylmethyl)pyrrolidin-3-yl]-6-[4-(pyrrolidin-1-ylcarbonyl)phenyl]-3,4-dihydroisoquinolin-1(2H)-one] | 254 to 256 °C
15 | O=C(c1ccc(-c2ccc3c(c2)CCN([C@@H]2CCN(Cc4ccco4)C2)C3=O)cc1)N1CCCC1 (as salt: hydrochloride) [Example 61, 2-[(3R)-1-(furan-2-ylmethyl)pyrrolidin-3-yl]-6-[4-(pyrrolidin-1-ylcarbonyl)phenyl]-3,4-dihydroisoquinolin-1(2H)-one] | 254 to 256 °C
16 | O=C(c1ccc(-c2ccc3c(c2)CCN([C@@H]2CCN(Cc4cccs4)C2)C3=O)cc1)N1CCCC1 (as salt: hydrochloride) [Example 62, 6-[4-(pyrrolidin-1-ylcarbonyl)phenyl]-2-[(3R)-1-(thiophen-2-ylmethyl)pyrrolidin-3-yl]-3,4-dihydroisoquinolin-1(2H)-one] | 249 to 250 °C
17 | O=C(c1ccc(-c2ccc3c(c2)CCN(C2CCN(C4CCC4)CC2)C3=O)cc1)N1CCCC1 (as salt: hydrochloride) [Example 65, 2-(1-cyclobutylpiperidin-4-yl)-6-[4-(pyrrolidin-1-ylcarbonyl)phenyl]-3,4-dihydroisoquinolin-1(2H)-one] | > 300 °C
18 | O=C(c1ccc(-c2ccc3c(c2)CCN(C2CCN(C4CCCC4)CC2)C3=O)cc1)N1CCCC1 (as salt: hydrochloride) [Example 66, 2-(1-cyclopentylpiperidin-4-yl)-6-[4-(pyrrolidin-1-ylcarbonyl)phenyl]-3,4-dihydroisoquinolin-1(2H)-one] | > 300 °C

Second part, the molecule after the results:

Row | melting point | SMILES
19 | 206 to 208 °C | CNC(=O)c1ccc(Oc2ccc3c(c2)CCN([C@@H]2CCN(C4CCC4)C2)C3=O)cc1 (as salt: hydrochloride) [Example 33, 4-({2-[(3R)-1-cyclobutylpyrrolidin-3-yl]-1-oxo-1,2,3,4-tetrahydroisoquinolin-6-yl}oxy)-N-methylbenzamide]
20 | 153 to 154 °C | CCNC(=O)c1ccc(Oc2ccc3c(c2)CCN([C@@H]2CCN(C4CCC4)C2)C3=O)cc1 (as salt: hydrochloride) [Example 34, 4-({2-[(3R)-1-cyclobutylpyrrolidin-3-yl]-1-oxo-1,2,3,4-tetrahydroisoquinolin-6-yl}oxy)-N-ethylbenzamide]
21 | 223 to 224 °C | CNC(=O)c1ccc(Oc2ccc3c(c2)CCN([C@@H]2CCN(C4CCCC4)C2)C3=O)cc1 (as salt: hydrochloride) [Example 37, 4-({2-[(3R)-1-cyclopentylpyrrolidin-3-yl]-1-oxo-1,2,3,4-tetrahydroisoquinolin-6-yl}oxy)-N-methylbenzamide]
22 | 178 to 180 °C | CCNC(=O)c1ccc(Oc2ccc3c(c2)CCN([C@@H]2CCN(C4CCCC4)C2)C3=O)cc1 (as salt: hydrochloride) [Example 38, 4-({2-[(3R)-1-cyclopentylpyrrolidin-3-yl]-1-oxo-1,2,3,4-tetrahydroisoquinolin-6-yl}oxy)-N-ethylbenzamide]
23 | > 240 °C | CNC(=O)c1ccc(-c2ccc3c(c2)CCN([C@@H]2CCN(C4CCCC4)C2)C3=O)cc1 (as salt: hydrochloride) [Example 41, 4-{2-[(3R)-1-cyclopentylpyrrolidin-3-yl]-1-oxo-1,2,3,4-tetrahydroisoquinolin-6-yl}-N-methylbenzamide]
24 | > 200 °C | CCNC(=O)c1ccc(-c2ccc3c(c2)CCN([C@@H]2CCN(C4CCCC4)C2)C3=O)cc1 (as salt: hydrochloride) [Example 42, 4-{2-[(3R)-1-cyclopentylpyrrolidin-3-yl]-1-oxo-1,2,3,4-tetrahydroisoquinolin-6-yl}-N-ethylbenzamide]
25 | > 200 °C | O=C(c1ccc(-c2ccc3c(c2)CCN([C@@H]2CCN(C4CCCC4)C2)C3=O)cc1)N1CCCC1 (as salt: hydrochloride) [Example 43, 2-[(3R)-1-cyclopentylpyrrolidin-3-yl]-6-[4-(pyrrolidin-1-ylcarbonyl)phenyl]-3,4-dihydroisoquinolin-1(2H)-one]
26 | 263 to 265 °C | CNC(=O)c1ccc(-c2ccc3c(c2)CCN([C@@H]2CCN(C4CCC4)C2)C3=O)cc1 (as salt: hydrochloride) [Example 44, 4-{2-[(3R)-1-cyclobutylpyrrolidin-3-yl]-1-oxo-1,2,3,4-tetrahydroisoquinolin-6-yl}-N-methylbenzamide]
27 | 268 to 272 °C | CCNC(=O)c1ccc(-c2ccc3c(c2)CCN([C@@H]2CCN(C4CCC4)C2)C3=O)cc1 (as salt: hydrochloride) [Example 45, 4-{2-[(3R)-1-cyclobutylpyrrolidin-3-yl]-1-oxo-1,2,3,4-tetrahydroisoquinolin-6-yl}-N-ethylbenzamide]
28 | 211 to 212 °C | CN(C)C(=O)c1ccc(-c2ccc3c(c2)CCN([C@@H]2CCN(C4CCC4)C2)C3=O)cc1 (as salt: hydrochloride) [Example 46, 4-{2-[(3R)-1-cyclobutylpyrrolidin-3-yl]-1-oxo-1,2,3,4-tetrahydroisoquinolin-6-yl}-N,N-dimethylbenzamide]
29 | 215 to 217 °C | O=C(c1ccc(-c2ccc3c(c2)CCN([C@@H]2CCN(C4CCC4)C2)C3=O)cc1)N1CCCC1 (as salt: hydrochloride) [Example 47, 2-[(3R)-1-cyclobutylpyrrolidin-3-yl]-6-[4-(pyrrolidin-1-ylcarbonyl)phenyl]-3,4-dihydroisoquinolin-1(2H)-one]
30 | 279 to 281 °C | O=C(c1ccc(-c2ccc3c(c2)CCN([C@@H]2CCN(C4CCCCC4)C2)C3=O)cc1)N1CCCC1 (as salt: hydrochloride) [Example 57, 2-[(3R)-1-cyclohexylpyrrolidin-3-yl]-6-[4-(pyrrolidin-1-ylcarbonyl)phenyl]-3,4-dihydroisoquinolin-1(2H)-one]
